# Results published in PMC3930709, “Selective Activation of hTRPV1 by N-Geranyl Cyclopropylcarboxamide, an Amiloride-Insensitive Salt Taste Enhancer” (PLoS ONE, 2014).
# How the values were obtained:
# Type in all cases: cell-based
# hTRPA1 = biological target: T1, hTRPA1 (Homo sapiens, UniProt O75762); experiment: Whole-cell patch clamp recording, cells stably expressing hTRPA1; conditions: AITC 100 µM; NGCC 10^3 µM; holding -80 mV
# T1 construct: expressed in transfected cells
# Protocol: Flp-In 293 cell lines stably expressing hTRPA1constructed as previously reported was a gift from the professor Takumi Misaka at University of Tokyo. The hTRPA1-expressing cells were cultured in DMEM containing 10% FBS and 0.02% hygromycin B (Invitrogen). Flp-In 293 cell lines were maintained in DMEM containing 10% FBS. All cells were incubated at 37°C in a humidified atmosphere of 5% CO2.
# (§1) The whole-cell configuration was used to voltage-clamp at room temperature (22–25°C). Electrodes pulled from glass micropipette capillaries (Sutter Instrument) had resistances of 2–2.5 MΩ, and series resistance errors were compensated >60%. Fast and slow capacitances were compensated before the application of test-pulse. Recordings were performed using aHEKAEPC-10 amplifier with pulse software (HEKA Elektronik). The pipette solution contained: 140 mM KCl, 5 mM MgCl2, 10 mM HEPES, 0.1 mM 1,2-bis(2-aminophenoxy) ethane N,N,N’,N’-tetraacetic acid(BAPTA), 3 mM Na2ATP, and 0.1 mM Na3GTP, adjusted to pH 7.4 with KOH. The external Ringer’s solution used for recording TRPV1 and TRPA1 currents contained: 150 mM NaCl, 5 mM KCl, 1 mM MgCl2, 2 mM EGTA, 10 mM Glucose, and 10 mM HEPES, adjusted to pH 7.4 with NaOH. TRPV1 and TRPA1 currents were recorded by holding the cell at −80 mV. The external Ringer’s solution used for recording ASIC current contained: 160 mM NaCl, 5 mM KCl, 1 mM MgCl2, 2 mM CaCl2, and 10 mM HEPES, adjusted to pH 7.4 with tetramethylammonium hydroxide. For acidic solution of pH 6.0, HEPES was replaced with MES. ASIC currents were recorded by holding the cell at −70 mV. Reagents were obtained as follows: BAPTA, Na2ATP, Na3GTP, EGTA, and tetramethylammonium hydroxide (Sigma), HEPES (Calbiochem), MES (Alfa Aesar), and other chemicals (Merck).
# αβγ hENaC = biological target: T2, αβγ hENaC (Homo sapiens, UniProt P37088+P51168+P51170); experiment: Membrane potential assay (FMP dye) on αβγ hENaC-expressing cells; conditions: continuous presence of Bz (0.01 µM)
# T2 construct: GFP; host or cells: HEK293T
# T2 sequence (P37088 1-669): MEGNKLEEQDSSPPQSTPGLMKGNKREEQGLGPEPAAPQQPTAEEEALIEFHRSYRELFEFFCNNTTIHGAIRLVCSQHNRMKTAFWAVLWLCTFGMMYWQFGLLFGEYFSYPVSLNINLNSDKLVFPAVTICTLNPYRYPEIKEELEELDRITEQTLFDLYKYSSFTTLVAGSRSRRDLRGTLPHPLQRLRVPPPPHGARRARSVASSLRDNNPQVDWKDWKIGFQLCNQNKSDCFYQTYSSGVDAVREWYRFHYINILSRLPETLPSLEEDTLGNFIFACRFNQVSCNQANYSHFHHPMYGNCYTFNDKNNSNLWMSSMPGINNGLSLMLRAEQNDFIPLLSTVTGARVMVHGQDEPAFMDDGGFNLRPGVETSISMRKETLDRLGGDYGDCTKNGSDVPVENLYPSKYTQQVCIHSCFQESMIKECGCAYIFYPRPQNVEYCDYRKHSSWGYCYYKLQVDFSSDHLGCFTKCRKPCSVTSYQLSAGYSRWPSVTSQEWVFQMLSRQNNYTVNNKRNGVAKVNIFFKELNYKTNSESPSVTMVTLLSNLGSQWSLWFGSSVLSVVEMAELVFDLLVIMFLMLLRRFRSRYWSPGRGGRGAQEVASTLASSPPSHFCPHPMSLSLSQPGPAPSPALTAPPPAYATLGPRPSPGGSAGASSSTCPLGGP
# T2 sequence (P51168 1-640): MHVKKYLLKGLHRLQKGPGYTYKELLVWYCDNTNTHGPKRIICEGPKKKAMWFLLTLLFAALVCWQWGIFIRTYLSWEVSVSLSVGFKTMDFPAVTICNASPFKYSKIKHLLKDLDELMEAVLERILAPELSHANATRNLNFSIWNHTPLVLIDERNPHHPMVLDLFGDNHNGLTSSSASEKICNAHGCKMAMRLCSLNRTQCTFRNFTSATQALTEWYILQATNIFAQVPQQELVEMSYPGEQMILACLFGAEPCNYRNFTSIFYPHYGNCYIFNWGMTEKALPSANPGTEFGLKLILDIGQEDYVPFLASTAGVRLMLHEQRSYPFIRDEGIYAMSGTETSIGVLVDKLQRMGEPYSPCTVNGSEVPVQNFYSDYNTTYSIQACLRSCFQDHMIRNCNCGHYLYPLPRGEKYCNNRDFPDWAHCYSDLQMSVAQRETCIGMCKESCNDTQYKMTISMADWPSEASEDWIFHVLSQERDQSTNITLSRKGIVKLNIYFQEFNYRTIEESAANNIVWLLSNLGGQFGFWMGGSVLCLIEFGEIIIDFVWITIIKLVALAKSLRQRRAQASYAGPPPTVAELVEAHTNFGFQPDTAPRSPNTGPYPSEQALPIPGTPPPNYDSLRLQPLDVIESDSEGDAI
# T2 sequence (P51170 1-649): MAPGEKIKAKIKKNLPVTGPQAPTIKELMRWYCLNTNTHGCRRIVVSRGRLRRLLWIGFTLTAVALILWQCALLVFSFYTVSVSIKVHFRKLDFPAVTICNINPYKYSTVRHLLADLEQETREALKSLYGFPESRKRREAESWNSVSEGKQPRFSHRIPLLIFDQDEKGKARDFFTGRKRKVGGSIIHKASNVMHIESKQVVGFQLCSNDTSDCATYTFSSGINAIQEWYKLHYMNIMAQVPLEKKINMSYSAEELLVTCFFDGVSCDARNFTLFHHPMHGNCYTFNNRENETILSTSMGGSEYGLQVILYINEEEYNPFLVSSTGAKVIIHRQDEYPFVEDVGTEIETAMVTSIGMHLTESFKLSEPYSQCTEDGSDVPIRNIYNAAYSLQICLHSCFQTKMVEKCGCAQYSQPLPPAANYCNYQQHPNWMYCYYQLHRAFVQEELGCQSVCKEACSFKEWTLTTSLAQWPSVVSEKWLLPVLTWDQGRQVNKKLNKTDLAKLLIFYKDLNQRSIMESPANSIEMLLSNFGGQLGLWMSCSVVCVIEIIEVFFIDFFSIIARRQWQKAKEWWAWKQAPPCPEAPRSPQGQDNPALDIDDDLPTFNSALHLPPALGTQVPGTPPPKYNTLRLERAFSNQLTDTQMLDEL
# Protocol: The α, β, and γ hENaC subunits were cloned from OriGene (Rockville, MD; GenBank accession number […] for SCNN1A, NM_000336 for SCNN1B and NM_001039 for SCNN1G). α, GFP-tagged β, and γ hENaC were cloned into a CMV promoter-based vector and expressed constitutively. The HEK293T cells were seeded onto a 35 mm dish and transfected with α, β, and γ hENaC expression plasmid using Lipofectamine 2000 (Invitrogen). Then, transfected cells were seeded onto 96-well black-wall plate for 18–26 h prior to their use in an experiment.
# hENaC-expressing cells were characterized using FLIPER Membrane Potential (FMP) Assay Kit (Molecular Devices Corporation, Sunnyvale, CA, USA). In this assay, changes in the membrane potential were quantified via fluorescence change caused by FMP dye. The hENaC-expressing cells were washed with assay buffer (containing: 130 mM NaCl, 10 mM glucose, 5 mM KCl, 2 mM CaCl2, 1.2 mM MgCl2, and 10 mM HEPES, pH adjusted to 7.4 with NaOH) and subsequently, FMP blue-dye in assay buffer was loaded into the cells at room temperature for 30 min. After dye treatment, S3969 (0.03−10 µM), an ENaC agonist, S3969+Bz (ENaC antagonist, 0.01 µM), or NGCC (0.01−10 µM) was treated to hENaC-expressing cells. The plate was assayed in a FlexStation III plate reader (Molecular devices Corporation) by excitation at 530 nm and measuring the emission at 560 nm.
# hTRPV1 [1] = biological target: T3, hTRPV1 (Homo sapiens, UniProt Q8NER1); experiment: Measurement of Ca2+ influx (Fluo-4 AM, FlexStation III) in hTRPV1-expressing cells; conditions: RR 30 µM or CPZ 1 µM added with agonist
# T3 construct: expressed in transfected cells; host or cells: HEK293T
# T3 sequence (Q8NER1 whole entry): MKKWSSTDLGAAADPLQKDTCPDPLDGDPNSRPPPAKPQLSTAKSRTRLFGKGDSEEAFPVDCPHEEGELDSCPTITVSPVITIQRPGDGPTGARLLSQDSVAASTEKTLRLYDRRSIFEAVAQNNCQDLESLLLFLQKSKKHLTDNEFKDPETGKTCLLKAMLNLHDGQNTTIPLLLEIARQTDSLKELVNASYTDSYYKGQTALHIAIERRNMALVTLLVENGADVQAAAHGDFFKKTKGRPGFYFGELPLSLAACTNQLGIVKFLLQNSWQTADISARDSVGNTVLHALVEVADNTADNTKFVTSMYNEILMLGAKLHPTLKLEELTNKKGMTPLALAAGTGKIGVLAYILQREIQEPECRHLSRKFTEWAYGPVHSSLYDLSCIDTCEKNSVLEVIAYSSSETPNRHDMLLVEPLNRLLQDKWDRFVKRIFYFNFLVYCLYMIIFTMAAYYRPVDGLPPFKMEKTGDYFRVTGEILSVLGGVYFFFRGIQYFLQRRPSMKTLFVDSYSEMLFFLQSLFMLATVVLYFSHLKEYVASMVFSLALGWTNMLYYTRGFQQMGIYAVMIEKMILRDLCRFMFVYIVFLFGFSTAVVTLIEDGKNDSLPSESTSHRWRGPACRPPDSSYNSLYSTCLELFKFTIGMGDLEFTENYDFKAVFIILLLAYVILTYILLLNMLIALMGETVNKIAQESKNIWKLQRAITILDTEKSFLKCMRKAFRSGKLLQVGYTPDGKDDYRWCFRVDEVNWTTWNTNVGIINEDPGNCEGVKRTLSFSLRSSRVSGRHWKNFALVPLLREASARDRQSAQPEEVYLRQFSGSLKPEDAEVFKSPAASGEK
# Protocol: hTRPV1 was constructed by amplification of the hTRPV1 region (NCBI accession number: NG_029716.1) and cloned into pEAK10 vector (Edge Biosystems, Gaithersburg, MD, USA). The hTRPV1 construct was amplified by PCR and the nucleotide sequence of the hTRPV1 gene was confirmed by sequencing with an ABI 3130 DNA genetic analyzer (Applied Biosystems, Foster City, CA, USA). […] After 6 h, transfected cells were seeded onto 96-well black-wall plate (BD Falcon Labware, Franklin Lakes, NJ, USA) for 18–26 h prior to their use in an experiment. The ligand-induced changes on cytosolic Ca^2+ level were monitored by a FlexStation III microplate reader (Molecular Devices). Fluo-4 AM (5 µM, Molecular Probes, Eugene, OR, USA) in assay buffer was loaded to the cells in 96-well black-wall plates for 30 min at 27°C. After dye treatment, each chemical was added to each well at 17 s and changes on intracellular Ca^2+ level were monitored by relative fluorescence units (ΔRFU, Ex = 485 nm; Em = 516 nm) for 120 s. […] The responses from at least three wells receiving the same stimulus were averaged. Plots of amplitude versus concentration were fitted using the Hill equation.
# hTRPV1 [2] = biological target: T3, hTRPV1; experiment: Ca2+ imaging (Fura-2 AM) of hTRPV1-expressing HEK293T cells; conditions: NGCC 30 µM; RR 30 µM, CPZ 1 µM
# Protocol: hTRPV1 was constructed by amplification of the hTRPV1 region (NCBI accession number: NG_029716.1) and cloned into pEAK10 vector (Edge Biosystems, Gaithersburg, MD, USA). The hTRPV1 construct was amplified by PCR and the nucleotide sequence of the hTRPV1 gene was confirmed by sequencing with an ABI 3130 DNA genetic analyzer (Applied Biosystems, Foster City, CA, USA). […] After 6 h, transfected cells were seeded onto 96-well black-wall plate (BD Falcon Labware, Franklin Lakes, NJ, USA) for 18-26 h prior to their use in an experiment. Mock-transfected HEK293T cells, hTRPV1-expressing HEK293T cells, non-hTRPA1-expressing Flp-In 293 cells, and hTRPA1-expressing Flp-In 293 cells grown in 96-well black-wall plates were rinsed with assay buffer (130 mM NaCl, 10 mM glucose, 5 mM KCl, 2 […]2, 1.2 mM MgCl2, and 10 mM HEPES, pH 7.4) and loaded with 5 μM Fura-2 AM (Invitrogen) for 30 min at 27°C. […] The fluorescence intensities of Fura-2 excited at 340 and 380 nm were simultaneously measured at 510 nm using a computer-controlled filter changer (Lambda DG4; Sutter, San Rafael, CA, USA), an Andor Luca CCD camera (Andor Technology, Belfast, UK), and an inverted fluorescence microscope (IX-71; Olympus, Tokyo, Japan). Intracellular calcium images were recorded every 3-s for 60-s and analyzed using MetaFluor software (Molecular Devices, Sunnyvale, CA, USA).
# hTRPV1 [3] = biological target: T3, hTRPV1; experiment: Whole-cell patch clamp recording, hTRPV1-expressing HEK293T cells
# Protocol: Mouse ASIC1a (mASIC1a) was a kind gift from John A. Wemmie (University of Iowa, IA, USA). For electrophysiological experiments, HEK293T cells were cultured in DMEM supplemented with 10% FBS and 0.2% penicillin/streptomycin and transiently transfected using Lipofectamine 2000 (Invitrogen) with various cDNAs. For TRPV1 channel expression, cells were transfected with hTRPV1, for ASIC1a homomeric channel expression, cells were transfected with mASIC1a. When needed, 0.1–0.2 µg of cDNA encoding tetrameric red fluorescence protein (DsRed) was co-transfected with the cDNA as a marker for successfully transfected cells. For non-transfected cells, cells were transfected with 0.1–0.2 µg of cDNA encoding DsRed alone. The next day, cells were plated onto poly-L-lysine-coated coverslip chips, and fluorescent cells were studied within 1–2 days.
# as §1
# [4] = first pulse normalized to 1.0, n = 4
# T1 sequence (O75762 whole entry): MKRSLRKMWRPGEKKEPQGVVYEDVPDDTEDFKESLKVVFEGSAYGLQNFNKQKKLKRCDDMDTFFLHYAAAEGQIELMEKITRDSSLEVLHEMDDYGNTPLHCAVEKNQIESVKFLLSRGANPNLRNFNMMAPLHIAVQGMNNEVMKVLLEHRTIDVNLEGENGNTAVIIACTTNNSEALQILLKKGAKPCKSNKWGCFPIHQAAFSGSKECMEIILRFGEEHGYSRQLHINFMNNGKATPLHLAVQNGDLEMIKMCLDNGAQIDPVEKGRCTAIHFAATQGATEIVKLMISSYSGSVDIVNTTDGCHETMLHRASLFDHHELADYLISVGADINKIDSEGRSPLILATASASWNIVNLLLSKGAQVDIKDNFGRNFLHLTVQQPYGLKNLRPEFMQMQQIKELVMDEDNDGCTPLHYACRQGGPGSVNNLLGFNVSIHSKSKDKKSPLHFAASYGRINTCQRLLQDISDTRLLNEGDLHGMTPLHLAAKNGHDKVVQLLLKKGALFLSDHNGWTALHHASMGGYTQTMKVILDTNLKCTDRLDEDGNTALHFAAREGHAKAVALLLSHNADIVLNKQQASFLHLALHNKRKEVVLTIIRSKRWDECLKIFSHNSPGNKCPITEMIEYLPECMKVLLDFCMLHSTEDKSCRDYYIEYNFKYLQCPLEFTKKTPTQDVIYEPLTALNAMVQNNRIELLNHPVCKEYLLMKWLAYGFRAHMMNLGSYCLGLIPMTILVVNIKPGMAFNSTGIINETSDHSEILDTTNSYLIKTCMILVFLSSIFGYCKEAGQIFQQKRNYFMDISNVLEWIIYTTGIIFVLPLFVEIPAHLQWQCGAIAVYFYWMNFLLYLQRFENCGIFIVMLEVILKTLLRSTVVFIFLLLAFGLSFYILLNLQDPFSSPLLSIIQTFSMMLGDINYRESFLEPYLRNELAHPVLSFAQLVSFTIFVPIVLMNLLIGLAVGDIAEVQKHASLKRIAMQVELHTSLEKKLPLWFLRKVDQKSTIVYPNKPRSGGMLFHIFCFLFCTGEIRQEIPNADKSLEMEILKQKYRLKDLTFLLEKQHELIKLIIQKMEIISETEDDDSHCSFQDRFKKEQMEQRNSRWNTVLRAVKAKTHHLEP
compound,measurement,setting,value
"C=CCN=C=S [AITC, Allylisothiocyanate]",inward current in hTRPA1-expressing cells,hTRPA1,evoked an inward current
"NC(=NCc1ccccc1)NC(=O)c1nc(Cl)c(N)nc1N [Bz, benzamil]",inhibition of S3969 activity on αβγ hENaC-expressing cells,αβγ hENaC,No effect of S3969 was observed
"Oc1cc2c(cc1O)CN(C(=S)NCCc1ccc(Cl)cc1)CCC2 [CPZ, capsazepine]",block of capsaicin- and NGCC-induced hTRPV1 activation (dose-response),hTRPV1 [1],blocked the effects of capsaicin and NGCC
same,block of NGCC-induced Ca2+ influx in hTRPV1-expressing cells,hTRPV1 [2],blocked NGCC activity to baseline levels
same,block of capsaicin-induced current,"hTRPV1 [3]; CPZ 1 µM preincubation 20 seconds, capsaicin 100 nM",blocked
same,normalized current density of NGCC-induced current after wash out of CPZ,hTRPV1 [3]; [4],0.61±0.12
same,normalized current density of NGCC-induced current under CPZ,hTRPV1 [3]; [4],0.12±0.05
